Measurements published in US7524639B2, “Assay for screening antipsychotic drugs” (priority 2003, dated 2009).
Where two headings read alike, the source gives them in different places.

Experiments:
[1] = values from Goodman & Gilman's (Baldessarini and Tarazi 2001) or other published medical sources, cited from earlier work
[2] = target: T1, rat 5-HT2A receptor tagged with EGFP (Rattus norvegicus, UniProt P14842); test: Internalization of GFP-tagged 5-HT2A receptor in SB1 cells (HEK293 stable line), confocal fluorescence microscopy; type: cell-based; conditions: drug applied for 10 mins, cycloheximide present
T1 construct: tagged at the C-terminus of the full-length rat 5-HT2A receptor (SR2-GFP); expressed in transfected cells; transiently transfected, differentiated N1E-115 cells (A2)

[3] = target: T1, rat 5-HT2A receptor tagged with EGFP; test: Internalization of GFP-tagged 5-HT2A receptor in transiently transfected, differentiated N1E-115 neuronal cells, confocal fluorescence microscopy; type: cell-based; conditions: drug applied for 10 mins, cycloheximide present

T1 sequence (P14842 whole entry): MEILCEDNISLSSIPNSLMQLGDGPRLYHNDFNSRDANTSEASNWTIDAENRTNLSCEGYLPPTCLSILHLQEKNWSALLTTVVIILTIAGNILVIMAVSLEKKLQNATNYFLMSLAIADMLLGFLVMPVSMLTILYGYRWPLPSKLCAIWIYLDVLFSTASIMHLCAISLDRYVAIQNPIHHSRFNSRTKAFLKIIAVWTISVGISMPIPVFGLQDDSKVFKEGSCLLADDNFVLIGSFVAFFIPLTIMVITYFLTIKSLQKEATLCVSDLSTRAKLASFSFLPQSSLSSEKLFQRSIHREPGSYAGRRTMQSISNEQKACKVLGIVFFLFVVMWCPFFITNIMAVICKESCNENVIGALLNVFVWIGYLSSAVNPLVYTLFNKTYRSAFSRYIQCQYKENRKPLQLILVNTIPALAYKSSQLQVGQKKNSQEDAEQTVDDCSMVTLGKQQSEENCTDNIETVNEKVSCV

| Receptor internalization SB1 cells (pattern of internalization) [2] | Receptor internalization N1E-115 cells (pattern of internalization) [3] | SMILES | Extrapyramidal side effects (EPS) [1] | further results |
| --- | --- | --- | --- | --- |
|  |  | CN1CCN(C2=Nc3cc(Cl)ccc3Nc3ccccc32)CC1 [Clozapine] | Very low | Extrapyramidal side effects (EPS) ([1]; listed as clozapine): negligible |
|  |  | OCCN1CCN(CCCN2c3ccccc3Sc3ccc(C(F)(F)F)cc32)CC1 [Fluphenazine] | Very high | Extrapyramidal side effects (EPS) ([1]; listed as fluphenazine): severe |
|  |  | O=C(CCCN1CCC(O)(c2ccc(Cl)cc2)CC1)c1ccc(F)cc1 [Haloperidol] | Very high | Extrapyramidal side effects (EPS) ([1]; listed as haloperidol): severe |
|  |  | CN1CCN(C2=Nc3ccccc3Oc3ccc(Cl)cc32)CC1 [Loxapine] | Moderate |  |
|  |  | Cc1cc2c(s1)Nc1ccccc1N=C2N1CCN(C)CC1 [Olanzapine] | Very low | Extrapyramidal side effects (EPS) ([1]; listed as olanzapine): negligible |
|  |  | OCCOCCN1CCN(C2=Nc3ccccc3Sc3ccccc32)CC1 [Quitapine] | Very low |  |
|  |  | Cc1nc2n(c(=O)c1CCN1CCC(c3noc4cc(F)ccc34)CC1)CCCC2 [Risperidone] | Moderate |  |
| Type B | Type B | O=C1Cc2cc(CCN3CCN(c4nsc5ccccc45)CC3)c(Cl)cc2N1 [Ziprasidone] | Moderate |  |
| Type C | Type B | OCCN1CCN(CC/C=C2/c3ccccc3Sc3ccc(Cl)cc32)CC1 [Zuclopenthixol] | Moderate |  |

| SMILES | Receptor internalization SB1 cells (pattern of internalization) [2] | Receptor internalization N1E-115 cells (pattern of internalization) [3] | Extrapyramidal side effects (EPS) [1] | further results |
| --- | --- | --- | --- | --- |
| O=C1CCc2ccc(OCCCCN3CCN(c4cccc(Cl)c4Cl)CC3)cc2N1 [Aripiprazole] | Type A | Type A | Very low |  |
